Laboratory results taken from patent publication US20220152224A1, “METHODS AND MATERIALS FOR TREATING CANCER” (priority 2019, published 2022).

System: GSK3β
Assay: Inhibition of GSK3β during Neurog2-induced neuronal conversion of U251 cells
Format: cell-based, human

## Cc1c[nH]c(-c2cnc(NCCNc3ccc(C#N)cn3)nc2-c2ccc(Cl)cc2Cl)n1 [CHIR99021]
CHIR99021 5 μM for 20 days
  neuronal conversion efficiency of Neurog2-infected U251 cells: decreased neuronal conversion efficiency

## Nc1cccc(-c2cc3c(Oc4cccc(O)c4)ncnc3[nH]2)c1 [TWS119]
TWS119 10 μM for 20 days
  neuronal conversion efficiency of Neurog2-infected U251 cells: decreased neuronal conversion efficiency
